In patent US20140378408A1, “NUCLEOSIDE 5'-PHOSPHOROTHIOATE ANALOGUES AND USES THEREOF” (BAR-ILAN UNIVERSITY, an Israeli University, priority 2012, published 2014):

How the values were obtained:
[1] = biological target: T1, human P2Y1-R (Homo sapiens, UniProt P47900); test: [Ca^2+]i response of 1321N1 astrocytoma cells expressing P2Y1-R GFP; type: cell-based; conditions: for EC50: agonist, read-out: EC50 at the P2Y1 receptor
T1 construct: expressed in transfected cells; host or cells: 1321N1 astrocytoma cells
Experimental: (§1) GFP constructs of human P2Y2-R, P2Y1-R and P2Y11-R were stably expressed in 1321N1 astrocytoma cells, which lack endogenous expression of P2X- and P2Y-receptors. The respective cDNA of the receptor gene was cloned into a pEGFPN1 vector and after transfection, using FuGENE 6 Transfection Reagent (Roche Molecular Biochemicals, Mannheim, Germany), cells were selected with 0.5 mg/ml G418 (geneticine; Merck Chemicals, Darmstadt, Germany) and grown in DMEM supplemented with 10% serum (FCS), 100 U/ml penicillin and 100 U/ml streptomycin at 37° C. and 5% CO2. The expression and cell membrane localization of the respective P2Y receptors was confirmed through the analysis of the GFP fluorescence. The functionality of the expressed GFP-labeled receptor in cells was verified by recording a change of [Ca^2+]i after stimulation with the appropriate receptor agonist.
(§2) 1321N1 astrocytoma cells transfected with the respective plasmid for P2Y-R-GFP expression plated on coverslips (22 mm diameter) and grown to approximately 80% density, were incubated with 2 μM fura 2/AM and 0.02% pluronic acid in Na-HBS buffer (Hepes buffered saline: 145 mM NaCl, 5.4 mM KCl, 1.8 mM CaCl2, 1 mM MgCl2, 25 mM glucose, 20 mM Hepes/Tris pH 7.4) for 30 min at 37° C. The cells were superfused (1 ml/min, 37° C.) with different concentrations of nucleotide in Na-HBS buffer. The nucleotide-induced change of [Ca^2+] was monitored by detecting the fluorescence intensities with excitations at 340 nm and 380 nm. Only GFP-labeled cells were analyzed. Microsoft Excel (Microsoft Corp., Redmond, Wash., USA) and SigmaPlot (SPSS Inc., Chicago, Ill., USA) were used to derive the concentration-response curves and EC50 values from the average response amplitudes obtained in at least three independent experiments (Ecke et al., 2006; Ecke et al., 2008). Only cells with a clear GFP-signal and with the typical calcium response kinetics upon agonist pulse application were included in the data analysis. The nucleotide induced change of [Ca^2+]i was monitored by detecting the respective emission intensity of fura 2/AM at 510 nm with 340 nm and 380 nm excitations (Ubl et al., 1998). The average maximal amplitude of the responses and the respective standard errors were calculated from ratio of the fura 2/AM. The GFP-tagged P2Y receptors are suitable for pharmacological and physiological studies, as previously reported (Tulapurkar et al., 2004; Tulapurkar et al., 2006; Zylberg et al., 2007).

[2] = system: PC12 cells; test: Toxicity at PC12 cells (MTT assay); type: cell-based
Experimental: The results shown are the mean±S.D of three independent experiments in triplicate.
In this study, the toxicity of APCPP-γ-S, at 1-1000 μM, at PC12 cells was tested by MTT assay. […] At 1000 μM, 75% of the cells were still viable.

[3] = biological target: T2, human P2Y2-R (Homo sapiens, UniProt P41231); test: [Ca^2+]i response of 1321N1 astrocytoma cells expressing P2Y2-R GFP; type: cell-based; conditions: for EC50: agonist, read-out: EC50 at the P2Y2 receptor; for activity at the P2Y2 receptor: isomer A of APPCCl2P-α-S at 100 μM
T2 construct: expressed in transfected cells; host or cells: 1321N1 astrocytoma cells
Experimental: as §1, §2

[4] = biological target: T3, TNAP (Homo sapiens, UniProt P05186); test: Hydrolysis by TNAP; type: in vitro ADME; conditions: 1 h
T3 sequence (P05186 18-501): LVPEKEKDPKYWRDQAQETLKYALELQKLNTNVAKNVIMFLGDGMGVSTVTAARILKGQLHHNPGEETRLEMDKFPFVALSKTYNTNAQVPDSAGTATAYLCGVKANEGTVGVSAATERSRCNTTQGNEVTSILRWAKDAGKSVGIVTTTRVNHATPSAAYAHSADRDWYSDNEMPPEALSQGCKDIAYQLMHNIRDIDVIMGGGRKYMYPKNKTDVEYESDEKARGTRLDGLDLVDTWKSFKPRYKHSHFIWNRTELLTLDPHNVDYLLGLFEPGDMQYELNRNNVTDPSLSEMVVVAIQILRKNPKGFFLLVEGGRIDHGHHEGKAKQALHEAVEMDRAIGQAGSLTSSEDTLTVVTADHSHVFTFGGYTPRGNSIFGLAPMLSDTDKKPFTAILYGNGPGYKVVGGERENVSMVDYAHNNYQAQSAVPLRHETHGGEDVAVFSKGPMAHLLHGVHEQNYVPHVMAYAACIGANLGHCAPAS
Source text: The metabolic stability of APPCCl2P-α-S (isomer A) and APCPP-γ-S was further proven by their resistance to enzymatic hydrolysis by TNAP.

[5] = biological target: T4, Aβ40-Cu^2+ aggregates (Homo sapiens, UniProt P05067); test: DLS, size reduction of Aβ40-Cu^2+ aggregates
T4 construct: purchased GL-Biochem (Shanghai)
Experimental: PBS buffer, Aβ40, chelator, Zn(NO3)2, and Cu(NO3)2 solutions were filtered through a […] PVDF syringe filter. 496 μM Aβ40 solution in 10 mM PBS (pH 7.4) and 2 mM Zn(NO3)2 solution were mixed to obtain 200 μM Aβ40-Zn^2+ (1:1 ratio) of a cloudy solution. Similarly, 2 mM Cu(NO3)2 solution was added to 496 μM Aβ40 in 10 mM PBS (pH 6.6). Aβ40-Zn^2+/Cu^2+ (10 μl) solution was transferred to Eppendorf tubes containing 10 mM PBS buffer (64 or 67 μl) followed by the addition of 3 and 6 eq of 2 mM nucleotide (6 or 3 μl) solution and incubation for 45 min at RT. The resulting mixture was incubated for another 30 min at RT and DLS data were then collected in a 70 μl disposable cuvette. The final sample concentrations were 25 μM Aβ40, 25 μM Zn^2+ or Cu^2+, and 150 or 75 μM nucleotide.
Monomeric Aβ40 was incubated with either Cu^2+ or Zn^2+ for 45 min to form a 1:1 peptide metal-ion complex. […] For the Aβ40-Zn^2+ particles the instrument readings indicated a different size distribution. […] We evaluated the capacity of the phosphorothioate analogues to dissolve Aβ40-Cu^2+ or Zn^2+ aggregates, as compared to EDTA and clioquinol known for their ability to dissolve Aβ-M^2+ aggregates (Ritchie et al., 2003; Huang et al., 1997). The reduction of dH of Aβ40-Cu^2+ aggregates by EDTA, clioquinol, or tested compounds was compared to the dH of Aβ-Cu^2+ aggregate itself (FIG. 5A). In addition, the efficacy of the chelators ATP-γ-S, ADP-β-S, APCPP-γ-S and GDP-β-S to resolubilize Aβ40-Cu^2+ and Aβ40-Zn^2+ is described in FIGS. 5B and 5C relative to EDTA and clioquinol. EDTA efficiency in reducing Aβ particle size is considered as 100%.

T1 sequence (P47900 whole entry): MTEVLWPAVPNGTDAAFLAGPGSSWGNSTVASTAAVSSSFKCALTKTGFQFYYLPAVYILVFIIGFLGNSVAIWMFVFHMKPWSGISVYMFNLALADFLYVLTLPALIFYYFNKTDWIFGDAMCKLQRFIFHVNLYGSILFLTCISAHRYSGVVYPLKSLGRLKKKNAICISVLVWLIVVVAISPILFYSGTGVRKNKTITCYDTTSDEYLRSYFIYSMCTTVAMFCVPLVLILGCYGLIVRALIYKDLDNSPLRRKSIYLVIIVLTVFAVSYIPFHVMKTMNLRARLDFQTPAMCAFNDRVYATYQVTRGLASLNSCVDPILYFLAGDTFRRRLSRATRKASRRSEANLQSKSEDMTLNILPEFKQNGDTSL
T2 sequence (P41231 whole entry): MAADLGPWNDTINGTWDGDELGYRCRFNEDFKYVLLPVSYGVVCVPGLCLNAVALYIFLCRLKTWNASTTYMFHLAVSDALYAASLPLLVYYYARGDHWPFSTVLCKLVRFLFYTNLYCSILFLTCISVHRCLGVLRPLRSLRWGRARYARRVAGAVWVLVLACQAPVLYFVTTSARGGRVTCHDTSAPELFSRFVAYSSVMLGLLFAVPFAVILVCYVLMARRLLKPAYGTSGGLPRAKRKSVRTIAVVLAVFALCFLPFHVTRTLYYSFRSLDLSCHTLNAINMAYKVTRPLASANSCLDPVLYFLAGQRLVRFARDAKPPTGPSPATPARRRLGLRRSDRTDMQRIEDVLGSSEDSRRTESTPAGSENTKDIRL
T4 sequence (P05067 672-711 limits assumed): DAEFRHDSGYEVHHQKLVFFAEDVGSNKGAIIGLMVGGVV

Row | Structure (SMILES) | EC50 [1] [µM] | viable cells ([2]; 100 μM) [%] | viable cells ([2]; 1000 μM) [%] | EC50 [3] [µM] | Hydrolysis by TNAP [4] | activity at the P2Y2 receptor [3] | fold better than GDP-β-S in reducing dH of Aβ40-Cu^2+ aggregates [5] [fold] | no activity at the P2Y1 receptor up to (concentration) [1] | reduction of cell viability ([2]; 1000 μM) [%] | not toxic up to (concentration) ([2]; 24 h) | dH (particle size) of Aβ40-Cu^2+ after chelator ([5]; aggregate alone 1836 nm, 25 μM Aβ40-Cu^2+, pH 6.6) [nm]
1 | Nc1ncnc2c1ncn2[C@@H]1O[C@H](COP(O)(=S)OP(=O)(O)C(Cl)(Cl)P(=O)(O)O)[C@@H](O)[C@H]1O (single isomer, unassigned) [APPCCl2P-α-S, adenosine 5′-[Pα-thio]-β,γ-(dichloromethylene)triphosphate] | > 10 | 100 | 75 | > 10 | – | – | – | – | – | – | –
2 | Nc1ncnc2c1ncn2[C@@H]1O[C@H](COP(O)(=S)OP(=O)(O)C(Cl)(Cl)P(=O)(O)O)[C@@H](O)[C@H]1O (single isomer, unassigned; isomer a) [APPCCl2P-α-S (isomer A), adenosine 5′-[Pα-thio]-β,γ-(dichloromethylene)triphosphate] | – | – | – | – | fully stable | no activity as agonist | – | – | – | – | –
3 | Nc1ncnc2c1ncn2[C@@H]1O[C@H](COP(=O)(O)OP(O)(O)=S)[C@@H](O)[C@H]1O [ADP-β-S, adenosine 5′-[β-thio]diphosphate, reference compound] | – | – | – | – | – | – | 5.4 | – | – | – | –
4 | Nc1ncnc2c1ncn2[C@@H]1O[C@H](COP(=O)(O)CP(=O)(O)OP(O)(O)=S)[C@@H](O)[C@H]1O [APCPP-γ-S, adenosine 5′-[Pγ-thio]-α,β-methylenetriphosphate] | > 10 | – | 75 | > 10 | 2.5% | neither agonist nor antagonist | – | up to 10 μM | 25 | up to 100 μM | 64
